Source: paper PMC11116414, “Impact of secretin receptor homo-dimerization on natural ligand binding” (Nature Communications, 2024)
No end group written: not given here.

Tested on: cysteine-containing SecR(G264A,I268A) constructs
Experiment: Cysteine trapping with SecR(G264A,I268A) cysteine constructs, intact COS-1 cells
Format: binding, human
Details: for Intraloop labeling / Overall labeling: mean ± S.E.M.
Protocol: In short, 15 µg of each peptide were incubated with 1 mCi of Na^125I for 15 s in borate buffer (pH 9.0) using solid-state N-chlorobenzene sulfonamide (iodination beads), and radioactive peptide products were separated and purified using reversed-phase HPLC, to yield a mono-iodinated peak with a specific radioactivity of 2000 Ci/mmol.
Modified secretin receptor constructs were prepared by mutagenesis of human SecR(G264A,I268A) by introducing cysteine residues to replace each natural residue in the N-terminal stalk region, (extracellular loop 1) ECL1, ECL2, and ECL3 regions of the receptor[21]. Mutagenesis was performed using the QuikChange site-directed mutagenesis kit from Stratagene (La Jolla, CA), with the products verified by direct DNA sequencing.
Cysteine trapping is a technique in which cysteine residues incorporated into distinct positions within a peptide ligand and within its receptor are allowed to form disulfide bonds when two free cysteines are in proximity to each other with necessary distance and geometry. As noted above, this was performed with secretin peptides incorporating cysteines in positions 2, 5, 6 and 7[20],[21], and with a series of SecR mutants incorporating cysteines in all extracellular domains (75 distinct constructs in a TM4 mutant non-dimerizing SecR background). COS-1 cells were grown to approximate 85% confluence in 24-well tissue culture plates, and transfected with cysteine mutant receptor constructs using the PEI method. Assays were started by washing the cells with DMEM containing 5% Fetal Clone II before being incubated with 200 μl radiolabeled cysteine-containing probes (approximately 100,000 cpm per well) for 1.5 h at room temperature. The assays were terminated by washing the cells with ice-cold PBS, pH 7.4, and mixing with 60 µl SDS Laemmli sample buffer not containing dithiothreitol (DTT). Lysates were run on 10% SDS-polyacrylamide gels. Gels were then dried, and bands of interest were visualized by autoradiography, and specific bands were identified, and intensities quantified using ImageJ. Sites having labeling above background were determined using one-way ANOVA with Dunnett’s post-test, with P < 0.001 considered to be significant. The apparent molecular weights of the receptor bands were determined by interpolation with the mobility of the appropriate ProSieve protein markers.

Question: What does the source list for “Cys^5-[Tyr^10]secretin(1-27) (HSDGCFTSEYSRLREGARLQRLLQGLV; not fully specified; ends and bridges not checked; also: radioiodinated; UniProt P09683 28-54, looked up, variant T5C L10Y) [Cys^5-Sec, cysteine-containing secretin agonist probe, radioiodinated for cysteine trapping]”?
Answer: Intraloop labeling (A290C, ECL2, n = 3-5): 20.3±19.9 percentage; Overall labeling (A290C, ECL2, n = 3-5): 15.5±15.2 percentage; Intraloop labeling (A292C, ECL2, n = 3-5): 93.4±2.8 percentage; Overall labeling (A292C, ECL2, n = 3-5, Cys5 significant (P < 0.0001)): 88.5±4.0 percentage; Intraloop labeling (A365C, ECL3, n = 3-5): 90.4±5.8 percentage; Overall labeling (A365C, ECL3, n = 3-5, Cys5 significant (P < 0.0001)): 82.4±7.9 percentage; Intraloop labeling (D282C, ECL2, n = 3-5): < 1 percentage; Overall labeling (D282C, ECL2, n = 3-5): < 1 percentage; Intraloop labeling (D287C, ECL2, n = 3-5): < 1 percentage; Overall labeling (D287C, ECL2, n = 3-5): < 1 percentage; Intraloop labeling (D364C, ECL3, n = 3-5): 62.2±12.3 percentage; Overall labeling (D364C, ECL3, n = 3-5, Cys5 significant (P < 0.0001)): 54.2±7.8 percentage; Intraloop labeling (E281C, ECL2, n = 3-5): < 1 percentage; Overall labeling (E281C, ECL2, n = 3-5): < 1 percentage; Intraloop labeling (E363C, ECL3, n = 3-5): < 1 percentage; Overall labeling (E363C, ECL3, n = 3-5): < 1 percentage; Intraloop labeling (E367C, ECL3, n = 3-5): < 1 percentage; Overall labeling (E367C, ECL3, n = 3-5): < 1 percentage; Intraloop labeling (E373C, ECL3, n = 3-5): < 1 percentage; Overall labeling (E373C, ECL3, n = 3-5): < 1 percentage; Intraloop labeling (F279C, ECL2, % of highest labeling within loop, n = 4 (Cys2), 5 (Cys5, Cys6), 3 (Cys7)): < 1 percentage; Overall labeling (F279C, ECL2, % of highest-labeled residue across all constructs, n = 4 (Cys2), 5 (Cys5, Cys6), 3 (Cys7)): < 1 percentage; Intraloop labeling (F371C, ECL3, n = 3-5): < 1 percentage; Overall labeling (F371C, ECL3, n = 3-5): < 1 percentage; Intraloop labeling (F372C, ECL3, n = 3-5): < 1 percentage; Overall labeling (F372C, ECL3, n = 3-5): < 1 percentage; Intraloop labeling (G284C, ECL2, n = 3-5): < 1 percentage; Overall labeling (G284C, ECL2, n = 3-5): < 1 percentage; Intraloop labeling (I288C, ECL2, n = 3-5): 71.1±10.8 percentage; Overall labeling (I288C, ECL2, n = 3-5, Cys5 and Cys7 significant (P < 0.0001)): 69.2±12.2 percentage; Intraloop labeling (I294C, ECL2, n = 3-5): < 1 percentage; Overall labeling (I294C, ECL2, n = 3-5): < 1 percentage; Intraloop labeling (I297C, ECL2, n = 3-5): < 1 percentage; Overall labeling (I297C, ECL2, n = 3-5): < 1 percentage; Intraloop labeling (I368C, ECL3, n = 3-5): < 1 percentage; Overall labeling (I368C, ECL3, n = 3-5): < 1 percentage; Intraloop labeling (L280C, ECL2, n = 3-5): < 1 percentage; Overall labeling (L280C, ECL2, n = 3-5): < 1 percentage; Intraloop labeling (L370C, ECL3, n = 3-5): < 1 percentage; Overall labeling (L370C, ECL3, n = 3-5): < 1 percentage; Intraloop labeling (L374C, ECL3, n = 3-5): 77.3±7.7 percentage; Overall labeling (L374C, ECL3, n = 3-5, Cys5, Cys6, Cys7 significant (P < 0.001)): 69.8±7.5 percentage; Intraloop labeling (M366C, ECL3, n = 3-5): 59.9±11.0 percentage; Overall labeling (M366C, ECL3, n = 3-5, Cys5 significant (P < 0.0001)): 55.3±12.0 percentage; Intraloop labeling (N289C, ECL2, n = 3-5): < 1 percentage; Overall labeling (N289C, ECL2, n = 3-5): < 1 percentage; Intraloop labeling (N291C, ECL2, n = 3-5): < 1 percentage; Overall labeling (N291C, ECL2, n = 3-5): < 1 percentage; Intraloop labeling (P362C, ECL3, n = 3-5): 20.3±19.9 percentage; Overall labeling (P362C, ECL3, n = 3-5): 19.3±19.0 percentage; Intraloop labeling (Q369C, ECL3, n = 3-5): 21.6±13.4 percentage; Overall labeling (Q369C, ECL3, n = 3-5): 21.6±13.5 percentage; Intraloop labeling (S293C, ECL2, n = 3-5): < 1 percentage; Overall labeling (S293C, ECL2, n = 3-5): < 1 percentage; Intraloop labeling (S361C, ECL3, n = 3-5): < 1 percentage; Overall labeling (S361C, ECL3, n = 3-5): < 1 percentage; Intraloop labeling (V283C, ECL2, n = 3-5): < 1 percentage; Overall labeling (V283C, ECL2, n = 3-5): < 1 percentage; Intraloop labeling (W286C, ECL2, n = 3-5): < 1 percentage; Overall labeling (W286C, ECL2, n = 3-5): < 1 percentage; Intraloop labeling (W295C, ECL2, n = 3-5): 79.1±16.7 percentage; Overall labeling (W295C, ECL2, n = 3-5, Cys2, Cys5, Cys7 significant (P < 0.0001)): 78.3±17.3 percentage; Intraloop labeling (W296C, ECL2, n = 3-5): < 1 percentage; Overall labeling (W296C, ECL2, n = 3-5, Cys6 significant (P = 0.0003)): < 1 percentage; cysteine trapping in ECL3, in words (WT (earlier work) and non-dimerizing SecR): labeled ECL3 residues
